Experimental findings from patent US4351948A, “Imidazole hydrazone derivatives” (priority 1980, dated 1982) are described below.

Where a name gives a salt, the structure may show the parent alone. Read-outs that look alike come from different tables or passages of the source.

Experiment in all cases: Antianaerobic activity, MIC by standard broth dilution method (Table II)
Common to all, as to assay type: cell-based
On the technique in general: In broth dilution the organism is exposed to a series of concentrations in liquid medium.

The subject of assay [1] is B. fragilis ATCC 23745. The note with it: Bacteroides fragilis, ATCC23745, 24 h, read-out: Minimal Inhibitory Concentration (MIC). The procedure:
(§1) The activity of the compounds identified in the Table II below was tested for antianaerobic activity against one strain of Bacteroides fragilis, one strain of Bacteroides uniformis, one strain of Clostridium sporogenes and one strain of Trichomonas vaginalis as the test organism. The methods used involved determining the minimum inhibitory concentration by the standard broth dilution method. […] For convenience the compounds are referred to by an internal reference number (an HC number) and this is correlated with the number of the Example wherein its production is described.

Assay [2] relates to T. vaginalis ATCC 30001. To be noted: Trichomonas vaginalis, ATCC30001, 24 h, read-out: Minimal Inhibitory Concentration (MIC). How it is done:
as §1

For assay [3], the system named is B. uniformis ATCC 8492. The note with it: Bacteroides uniformis, ATCC8492, 24 h, read-out: Minimal Inhibitory Concentration (MIC). The procedure:
as §1

Assay [4] relates to C. sporogenes ATCC 19404. To be noted: Clostridium sporogenes, ATCC19404, 24 h. The procedure: The activity of the compounds identified in the Table II below was tested for antianaerobic activity against one strain of Bacteroides fragilis, one strain of Bacteroides uniformis, one strain of Clostridium sporogenes and one strain of Trichomonas vaginalis as the test organism. The methods used involved determining the minimum inhibitory concentration by the standard broth dilution method. The values for metronidazole (2-methyl-5-nitro-1H-imidazole-1-ethanol) are given above for reference purposes. For convenience the compounds are referred to by an internal reference number (an HC number) and this is correlated with the number of the Example wherein its production is described.

The mark [5] stands for this setting: Test 1, read-out: Minimal Inhibitory Concentration (MIC).
Setting [6] is: Test 2, read-out: Minimal Inhibitory Concentration (MIC).
[7] abbreviates: Test 3, read-out: Minimal Inhibitory Concentration (MIC).

Take `Cl.FC(F)(F)c1cccc(C(Cn2ccnc2)=NNc2c(Cl)cccc2Cl)c1` [HC474, 1-(3-trifluoromethylphenyl)-2-(1H-imidazol-1-yl)ethanone, 2,6-dichlorophenylhydrazone, hydrochloride]: the MIC in assay [1] (Test 1) came out at 5 µg/mL; in assay [1] (Test 2), 7.5 µg/mL; in assay [1] (Test 3), 7.5 µg/mL; in assay [2] (Test 2), 50 µg/mL; in assay [2] (Test 3) it was 50 µg/mL; in assay [3] (Test 1), 10 µg/mL. The MIC in assay [3] (Test 2) was determined as 5 µg/mL; in assay [3] (Test 3), 7.5 µg/mL; in assay [4] (setting [5]), 7.5 µg/mL; in assay [4] (setting [6]), 5 µg/mL; in assay [4] (setting [7]), 5 µg/mL.

Turning to `Cl.Clc1ccc(NN=C(Cn2ccnc2)c2ccccc2)c(Cl)c1` [HC-306, 1-Phenyl-2-(1H-imidazol-1-yl)ethanone, 2,4-dichlorophenylhydrazone, hydrochloride], the MIC worked out at 10 µg/mL in assay [1] (Test 1); 2.5 µg/mL in assay [1] (Test 2); 2.5 µg/mL in assay [1] (Test 3); 50 µg/mL in assay [2] (Test 1); 50 µg/mL in assay [2] (Test 2); 25 µg/mL in assay [2] (Test 3). Besides, the MIC in assay [3] (Test 1) worked out at 10 µg/mL; in assay [3] (Test 2) it was 2.5 µg/mL; in assay [3] (Test 3), 2.5 µg/mL; in assay [4] (setting [5]), 10 µg/mL; in assay [4] (setting [6]), 2.5 µg/mL; in assay [4] (setting [7]), 2.5 µg/mL.

Consider `Clc1ccc(NN=C(Cn2ccnc2)c2ccc(Cl)s2)c(Cl)c1` [HC-363, 1-(5-chlorothien-2-yl)-2-(1H-imidazol-1-yl) ethanone, 2,4-dichlorophenylhydrazone, hydrochloride], for which the MIC in assay [1] (Test 1) worked out at 1 µg/mL; in assay [1] (Test 2) it was 2.5 µg/mL; in assay [1] (Test 3), 2.5 µg/mL; in assay [2] (Test 1), 50 µg/mL; in assay [2] (Test 2) it was 50 µg/mL; in assay [2] (Test 3), 50 µg/mL. Also, the MIC in assay [3] (Test 1) came out at 2.5 µg/mL; in assay [3] (Test 2), 2.5 µg/mL; in assay [3] (Test 3), 2.5 µg/mL; in assay [4] (setting [5]), 2.5 µg/mL; in assay [4] (setting [6]), 2.5 µg/mL; in assay [4] (setting [7]), 7.5 µg/mL.

Take `Cl.Clc1cccc(Cl)c1NN=C(Cn1ccnc1)c1ccc(Br)cc1` [HC-364, 1-(4-bromophenyl)-2-(1H-imidazol-1-yl)ethanone, 2,6-dichlorophenylhydrazone, hydrochloride]: the MIC was found to be 10 µg/mL in assay [1] (Test 1); 2.5 µg/mL in assay [1] (Test 2); 5 µg/mL in assay [1] (Test 3); 50 µg/mL in assay [2] (Test 1); 50 µg/mL in assay [2] (Test 2); 50 µg/mL in assay [2] (Test 3). Also, the MIC in assay [3] (Test 1) came out at 10 µg/mL; in assay [3] (Test 2), 2.5 µg/mL; in assay [3] (Test 3) it was 2.5 µg/mL; in assay [4] (setting [5]) it was 10 µg/mL; in assay [4] (setting [6]) it was 5 µg/mL; in assay [4] (setting [7]) it was 25 µg/mL.

In the case of `Clc1ccc(NN=C(Cn2ccnc2)c2ccc(Br)cc2)c(Cl)c1` [HC-378, 1-(4-bromophenyl)-2-(1H-imidazol-1-yl) ethanone, 2,4-dichlorophenylhydrazone, hydrochloride], the MIC in assay [1] (Test 1) is 10 µg/mL; in assay [1] (Test 2) it was 2.5 µg/mL; in assay [1] (Test 3), 2.5 µg/mL; in assay [2] (Test 1), over 50 µg/mL; in assay [2] (Test 2), over 50 µg/mL; in assay [2] (Test 3) it was 50 µg/mL. For the same compound, the MIC in assay [3] (Test 1) is 10 µg/mL; in assay [3] (Test 2), 2.5 µg/mL; in assay [3] (Test 3) it was 5 µg/mL; in assay [4] (setting [5]), 50 µg/mL; in assay [4] (setting [6]) it was 25 µg/mL; in assay [4] (setting [7]) it was 25 µg/mL.

With `Clc1ccc(NN=C(Cn2ccnc2)c2ccc(Cl)cc2Cl)c(Cl)c1` [HC-380, 1-(2,4-dichlorophenyl)-2-(1H-imidazol-1-yl) ethanone, 2,4-dichlorophenylhydrazone, hydrochloride], the MIC in assay [1] (Test 1) came to 10 µg/mL; in assay [1] (Test 2) it was 2.5 µg/mL; in assay [1] (Test 3), 2.5 µg/mL; in assay [2] (Test 1), 50 µg/mL; in assay [2] (Test 2), 25 µg/mL; in assay [2] (Test 3), 25 µg/mL. Moreover, the MIC in assay [3] (Test 1) was 10 µg/mL; in assay [3] (Test 2) it was 2.5 µg/mL; in assay [3] (Test 3), 2.5 µg/mL; in assay [4] (setting [5]) it was 10 µg/mL; in assay [4] (setting [6]), 2.5 µg/mL; in assay [4] (setting [7]), 2.5 µg/mL.

Consider `CC(C(=NNc1c(Cl)cccc1Cl)c1ccc(Cl)cc1)n1ccnc1` (centres unmarked) [HC-403, 1-(4-chlorophenyl)-2-(1H-imidazol-1-yl)propanone, 2,6-dichlorophenylhydrazone, hydrochloride], for which the MIC in assay [1] (Test 1) was 5 µg/mL; in assay [1] (Test 2), 2.5 µg/mL; in assay [1] (Test 3), 5 µg/mL; in assay [2] (Test 1), under 50 µg/mL; in assay [2] (Test 2), 7.5 µg/mL; in assay [2] (Test 3), under 50 µg/mL. The MIC turned out to be 2.5 µg/mL in assay [3] (Test 1); 2.5 µg/mL in assay [3] (Test 2); 2.5 µg/mL in assay [3] (Test 3); 7.5 µg/mL in assay [4] (setting [6]); 1 µg/mL in assay [4] (read-out: Minimal Inhibitory Concentration (MIC), Test 1); 50 µg/mL in assay [4] (read-out: Minimal Inhibitory Concentration (MIC), Test 3).

Consider `Cl.Clc1ccc(C(Cn2ccnc2)=NNc2c(Cl)cc(Cl)cc2Cl)c(Cl)c1` [HC-420, 1-(2,4-dichlorophenyl)-2-(1H-imidazol-1-yl)ethanone, 2,4,6-trichlorophenylhydrazone, hydrochloride], for which the MIC in assay [1] (Test 1) is 10 µg/mL; in assay [1] (Test 2), 2.5 µg/mL; in assay [1] (Test 3), 2.5 µg/mL; in assay [2] (Test 1) it was 50 µg/mL; in assay [2] (Test 2), 50 µg/mL; in assay [2] (Test 3), 50 µg/mL. In addition, the MIC came to 10 µg/mL in assay [3] (Test 1); 1 µg/mL in assay [3] (Test 2); 2.5 µg/mL in assay [3] (Test 3); 10 µg/mL in assay [4] (setting [5]); 2.5 µg/mL in assay [4] (setting [6]); 2.5 µg/mL in assay [4] (setting [7]).

Consider `CC(C(=NNc1ccc(Cl)cc1Cl)c1ccc(Cl)cc1)n1ccnc1` (centres unmarked) [HC-433, 1(4-chlorophenyl)-2-(1H-imidazol-1-yl) propanone, 2,4-dichlorophenylhydrazone, hydrochloride], for which the MIC in assay [1] (Test 1) amounted to 1 µg/mL; in assay [1] (Test 2) it was 2.5 µg/mL; in assay [1] (Test 3), 2.5 µg/mL; in assay [2] (Test 1), 75 µg/mL; in assay [2] (Test 2), 50 µg/mL; in assay [2] (Test 3), 50 µg/mL. The MIC is 0.5 µg/mL in assay [3] (Test 1); 5 µg/mL in assay [3] (Test 2); 2.5 µg/mL in assay [3] (Test 3); 1 µg/mL in assay [4] (setting [5]); 2.5 µg/mL in assay [4] (setting [6]); 2.5 µg/mL in assay [4] (setting [7]).

Consider `Cl.FC(F)(F)c1ccc(C(Cn2ccnc2)=NNc2c(Cl)cccc2Cl)cc1` [HC-438, 1-(4-trifluoromethylphenyl)-2-(1H-imidazol-1-yl)ethanone, 2,6-dichlorophenylhydrazone, hydrochloride], for which the MIC in assay [1] (Test 1) is 5 µg/mL; in assay [1] (Test 2) it was 7.5 µg/mL; in assay [1] (Test 3), 5 µg/mL; in assay [2] (Test 1), 25 µg/mL; in assay [2] (Test 2), 50 µg/mL; in assay [2] (Test 3), 75 µg/mL. Further, the MIC in assay [3] (Test 1) turned out to be 5 µg/mL; in assay [3] (Test 2), 5 µg/mL; in assay [3] (Test 3), 5 µg/mL; in assay [4] (setting [5]), 2.5 µg/mL; in assay [4] (setting [6]), 7.5 µg/mL; in assay [4] (setting [7]) it was 2.5 µg/mL.

For the compound `Cl.Clc1ccc(NN=C(Cn2ccnc2)c2ccccc2)cc1Cl` [HC-442, 1-phenyl-2-(1H-imidazol-1-yl)ethanone, 3,4-dichlorophenylhydrazone, hydrochloride], the MIC came out at 2.5 µg/mL in assay [1] (Test 1); 5 µg/mL in assay [1] (Test 2); 5 µg/mL in assay [1] (Test 3); 50 µg/mL in assay [2] (Test 1); 75 µg/mL in assay [2] (Test 2); 100 µg/mL in assay [2] (Test 3). Besides, the MIC in assay [3] (Test 1) is 2.5 µg/mL; in assay [3] (Test 2), 5 µg/mL; in assay [3] (Test 3), 5 µg/mL; in assay [4] (setting [5]) it was 5 µg/mL; in assay [4] (setting [6]), 2.5 µg/mL; in assay [4] (setting [7]), 2.5 µg/mL.

Take `Cl.Fc1ccc(C(Cn2ccnc2)=NNc2ccc(Cl)c(Cl)c2)cc1` [HC-506, 1-(4-fluorophenyl)-2-(1H-imidazol-1-yl)ethanone, 3,4-dichlorophenylhydrazone, hydrochloride]: the MIC in assay [1] (Test 1) is 5 µg/mL; in assay [1] (Test 2), 5 µg/mL; in assay [3] (Test 1) it was 5 µg/mL; in assay [3] (Test 2), 2.5 µg/mL; in assay [4] (setting [5]), over 50 µg/mL; in assay [4] (setting [6]), over 50 µg/mL.

Consider `Cl.Fc1ccccc1C(Cn1ccnc1)=NNc1cccc(Cl)c1Cl` [HC-507, 1-(2-fluorophenyl)-2-(1H-imidazol-1-yl)ethanone, 2,3-dichlorophenylhydrazone, hydrochloride], for which the MIC in assay [1] (Test 1) is 2.5 µg/mL; in assay [1] (Test 2), 5 µg/mL; in assay [3] (Test 1), 5 µg/mL; in assay [3] (Test 2), 2.5 µg/mL; in assay [4] (setting [5]), 2.5 µg/mL; in assay [4] (setting [6]) it was 2.5 µg/mL.
